Where only a bound is given, the exact number is not on record here.

This assay has as its system HCV replicon RNA replication in human Huh7 hepatoma cells. Briefly: HCV replicon assay (activity levels from either or both of HCV replicon assay 1, Huh7/Clone A RT-qPCR, and assay 2, Huh7 ET luc-ubi-neo/ET). The format is cell-based, Hepatitis C virus (HCV). Particulars: Hepatitis C virus, Huh-7, either or both HCV replicon assays: Huh7/Clone A, 48 hours, 72 hours, Luc activity or RT-PCR, read-out: inhibit HCV replication at IC50 levels or estimated IC50 levels. The procedure, abridged: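 Huh7/Clone A subgenomic replicon cells treated 48 h at 37° C. with 7 serial dilutions in triplicate (0.5% DMSO final). Replicon RNA measured by TaqMan RT-qPCR on the neo gene, normalized to RiboGreen total RNA; untreated cells set as 100% for IC50.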
Consider `CC(C)(c1ccccc1)c1noc(-c2cn(Cc3ccc(C(F)(F)F)cc3)c3cc(N4CCOCC4)c(F)cc3c2=O)n1` [Compound 171, 6-fluoro-7-morpholino-3-(3-(2-phenylpropan-2-yl)-1,2,4-oxadiazol-5-yl)-1-(4-(trifluoromethyl)benzyl)quinolin-4(1H)-one], for which the IC50 is over 10 µM.

Regarding `O=c1c(-c2nc(Cc3ccc(F)cc3)no2)cn(Cc2ccc(C(F)(F)F)cc2)c2cc(N3CCOCC3)c(F)cc12` [Compound 172, 6-fluoro-3-(3-(4-fluorobenzyl)-1,2,4-oxadiazol-5-yl)-7-morpholino-1-(4-(trifluoromethyl)benzyl)quinolin-4(1H)-one], the IC50 is over 10 µM.

For `CC(C)(c1ccc(F)cc1)c1noc(-c2cn(Cc3ccc(C(F)(F)F)cc3)c3cc(N4CCOCC4)c(F)cc3c2=O)n1` [Compound 173, 6-fluoro-3-(3-(2-(4-fluorophenyl)propan-2-yl)-1,2,4-oxadiazol-5-yl)-7-morpholino-1-(4-(trifluoromethyl)benzyl)quinolin-4(1H)-one], the concentration for half-maximal inhibition (IC50) is over 10 µM.

`O=c1c(-c2ncc(Cc3ccccc3)o2)cn(Cc2ccc(Cl)cc2)c2ccc(OCCCN3CCOCC3)cc12` [Compound 176, 3-(5-benzyl-oxazol-2-yl)-1-(4-chloro-benzyl)-6-(3-morpholin-4-yl-propoxy)-1H-quinolin-4-one]: the IC50 is under 10 µM.

As for `O=c1c(-c2noc(Cc3ccc(Cl)cc3)n2)cn(Cc2ccc(C(F)(F)F)cc2F)c2c1CNCC2` [Compound 178, 3-[5-(4-chloro-benzyl)-[1,2,4]oxadiazol-3-yl]-1-(2-fluoro-4-trifluoromethyl-benzyl)-5,6,7,8-tetrahydro-1H-[1,6]naphthyridin-4-one], the IC50 was under 10 µM.

As a reminder, the IC50 is the point on the concentration scale where inhibition reaches its midpoint.

The record behind these values is patent US20070287699A1, “ANTIVIRAL AGENTS” (ViroBay, Inc., priority 2006, published 2007).
